From the NIST ThermoML archive (doi:10.1021/acs.jced.8b00217)

How the values were obtained:
[1] = 298.15 K; 101.3 kPa; Liquid; Vibrating tube method
[2] = refractive index (Na D-line) (dimensionless); conditions: 298.15 K; 101.3 kPa; Liquid; Standard Abbe refractometry
[3] = relative permittivity at various frequencies (dimensionless); conditions: 298.15 K; 101.3 kPa; Liquid; Frequency=0.01 MHz; Coaxial cylinder capacitor
[4] = xn = mol fraction of the nth substance listed; conditions: 298.15 K, 101.3 kPa, Liquid, Vibrating tube method
[5] = refractive index (Na D-line) (dimensionless); xn = mol fraction of the nth substance listed; conditions: 298.15 K, 101.3 kPa, Liquid, Standard Abbe refractometry
[6] = relative permittivity at various frequencies (dimensionless); xn = mol fraction of the nth substance listed; conditions: 298.15 K, 101.3 kPa, Liquid, Frequency=0.01 MHz, Coaxial cylinder capacitor

CCCCO [butan-1-ol]
Conditions	mass density [kg/m3]	refractive index	relative permittivity
[1]	805.92	–	–
[2]	–	1.3971	–
[3]	–	–	17.49

CCCCO [butan-1-ol] + O=C1CCCC1
x2 = 0
Conditions	mass density [kg/m3]	refractive index	relative permittivity
[4]	805.92	–	–
[5]	–	1.3971	–
[6]	–	–	17.49

C1CCCCC1 [cyclohexane]
Conditions	mass density [kg/m3]	refractive index	relative permittivity
[1]	773.89	–	–
[2]	–	1.4235	–
[3]	–	–	2.02

C1CCCCC1 [cyclohexane] + O=C1CCCC1
x2 = 0
Conditions	refractive index	relative permittivity
[5]	1.4235	–
[6]	–	2.02

O=C1CCCC1 [cyclopentanone]
Conditions	mass density [kg/m3]	refractive index	relative permittivity
[1]	944.31	–	–
[2]	–	1.4347	–
[3]	–	–	13.52

O=C1CCCC1 [cyclopentanone] + C1CCCCC1
Conditions	refractive index, [5]	relative permittivity, [6]
x1 = 0.03	1.4235	2.25
x1 = 0.05	1.4235	2.39
x1 = 0.1	1.4236	2.78
x1 = 0.15	1.4237	3.19
x1 = 0.2	1.4239	3.61
x1 = 0.3	1.4244	4.51
x1 = 0.4	1.4252	5.51
x1 = 0.5	1.4262	6.6
x1 = 0.6	1.4274	7.78
x1 = 0.7	1.4289	9.06
x1 = 0.8	1.4306	10.45
x1 = 0.9	1.4325	11.94
x1 = 1	1.4347	13.52

O=C1CCCC1 [cyclopentanone] + CCCCCCCCCCO
Conditions	mass density, [4] [kg/m3]	refractive index, [5]	relative permittivity, [6]
x1 = 0.1	829.38	1.4345	7.75
x1 = 0.2	833.22	1.4339	7.84
x1 = 0.3	839.24	1.4335	8.07
x1 = 0.4	847.47	1.4333	8.43
x1 = 0.5	857.91	1.4332	8.93
x1 = 0.6	870.34	1.4332	9.56
x1 = 0.7	884.81	1.4333	10.34
x1 = 0.8	901.52	1.4336	11.27
x1 = 0.9	921.01	1.4341	12.31
x1 = 1	944.31	1.4347	13.52

O=C1CCCC1 [cyclopentanone] + CCCCCCCCO
Conditions	mass density, [4] [kg/m3]	refractive index, [5]	relative permittivity, [6]
x1 = 0.1	827.28	1.4276	9.63
x1 = 0.2	833.41	1.4278	9.51
x1 = 0.3	841.25	1.4282	9.5
x1 = 0.4	850.89	1.4287	9.65
x1 = 0.5	862.2	1.4294	9.94
x1 = 0.6	874.88	1.4302	10.37
x1 = 0.7	889.18	1.4311	10.97
x1 = 0.8	905.27	1.4321	11.69
x1 = 0.9	923.62	1.4333	12.55
x1 = 1	944.31	1.4347	13.52

O=C1CCCC1 [cyclopentanone] + CCCCCCO
Conditions	mass density, [4] [kg/m3]	refractive index, [5]	relative permittivity, [6]
x1 = 0.1	823.87	1.4175	12.44
x1 = 0.2	832.61	1.4189	12
x1 = 0.3	842.44	1.4204	11.68
x1 = 0.4	853.65	1.4221	11.51
x1 = 0.5	866.02	1.4239	11.48
x1 = 0.6	879.48	1.4258	11.59
x1 = 0.7	894.17	1.4279	11.87
x1 = 0.8	909.92	1.4301	12.27
x1 = 0.9	926.64	1.4324	12.83
x1 = 1	944.31	1.4347	13.52

O=C1CCCC1 [cyclopentanone] + CCCCO
Conditions	mass density, [4] [kg/m3]	refractive index, [5]	relative permittivity, [6]
x1 = 0.1	820.75	1.4015	16.31
x1 = 0.2	835.31	1.4057	15.37
x1 = 0.3	849.88	1.4098	14.58
x1 = 0.4	864.47	1.4137	13.97
x1 = 0.5	878.88	1.4175	13.5
x1 = 0.6	893.05	1.4212	13.18
x1 = 0.7	906.81	1.4248	13.03
x1 = 0.8	920.01	1.4282	13.04
x1 = 0.9	932.67	1.4315	13.19
x1 = 1	944.31	1.4347	13.52

O=C1CCCC1 [cyclopentanone] + CCO
Conditions	mass density, [4] [kg/m3]	refractive index, [5]	relative permittivity, [6]
x1 = 0.1	811.02	1.3696	22.42
x1 = 0.2	833.48	1.3793	20.69
x1 = 0.3	853.69	1.3884	19.16
x1 = 0.4	871.79	1.3968	17.78
x1 = 0.5	888.17	1.4046	16.6
x1 = 0.6	902.91	1.4117	15.59
x1 = 0.7	915.99	1.4182	14.77
x1 = 0.8	927.18	1.4242	14.16
x1 = 0.9	936.58	1.4296	13.75
x1 = 1	944.31	1.4347	13.52

CCCCCCCCCCO [decan-1-ol]
Conditions	mass density [kg/m3]	refractive index	relative permittivity
[1]	826.71	–	–
[2]	–	1.4352	–
[3]	–	–	7.74

CCCCCCCCCCO [decan-1-ol] + O=C1CCCC1
x2 = 0
Conditions	mass density [kg/m3]	refractive index	relative permittivity
[4]	826.71	–	–
[5]	–	1.4352	–
[6]	–	–	7.74

CCO [ethanol]
Conditions	mass density [kg/m3]	refractive index	relative permittivity
[1]	785.26	–	–
[2]	–	1.3594	–
[3]	–	–	24.37

CCO [ethanol] + O=C1CCCC1
x2 = 0
Conditions	mass density [kg/m3]	refractive index	relative permittivity
[4]	785.26	–	–
[5]	–	1.3594	–
[6]	–	–	24.37

CCCCCCO [hexan-1-ol]
Conditions	mass density [kg/m3]	refractive index	relative permittivity
[1]	815.99	–	–
[2]	–	1.4161	–
[3]	–	–	13.09

CCCCCCO [hexan-1-ol] + O=C1CCCC1
x2 = 0
Conditions	mass density [kg/m3]	refractive index	relative permittivity
[4]	815.99	–	–
[5]	–	1.4161	–
[6]	–	–	13.09

CCCCCCCCO [octan-1-ol]
Conditions	mass density [kg/m3]	refractive index	relative permittivity
[1]	821.98	–	–
[2]	–	1.4276	–
[3]	–	–	9.85

CCCCCCCCO [octan-1-ol] + O=C1CCCC1
x2 = 0
Conditions	mass density [kg/m3]	refractive index	relative permittivity
[4]	821.98	–	–
[5]	–	1.4276	–
[6]	–	–	9.85
